Experimental data from PubChem BioAssay AID248 (DTP/NCI, 2004).
Values joined by “and” are separate entries in the source; they are usually repeats but may differ in a detail not shown here. Equal values may be shown once. Inconclusive results and toxic doses are left out. Rule as the data show it: active = T/C of 150% or more; inactive = T/C below 125%.

Test system: L1210 leukemia ip in BDF1 mice, survival T/C
Experiment: NCI In Vivo Anticancer Drug Screen. Data for tumor model L1210 Leukemia (intraperitoneal) in B6D2F1 (BDF1) mice
Conditions: endpoint: mean survival time, higher = longer survival
How it was run: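 In this screen, tumor-bearing mice given compound are compared to those given vehicle, and their survival values are reported as a treated-to-control quotient.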

[1] = dose: 100.0 mg/kg/injection, schedule: Q01DX001 (ip), vehicle: saline with Tween-80
[2] = dose: 200.0 mg/kg/injection, schedule: Q01DX001 (ip), vehicle: saline with Tween-80
[3] = dose: 400.0 mg/kg/injection, schedule: Q01DX001 (ip), vehicle: saline with Tween-80
[4] = dose: 100.0 mg/kg/injection, schedule: Q01DX001 (ip), vehicle: saline
[5] = dose: 200.0 mg/kg/injection, schedule: Q01DX001 (ip), vehicle: saline
[6] = dose: 100.0 mg/kg/injection, schedule: Q01DX001 (ip), vehicle: carboxymethylcellulose (CMC)
[7] = dose: 200.0 mg/kg/injection, schedule: Q01DX001 (ip), vehicle: carboxymethylcellulose (CMC)
[8] = dose: 400.0 mg/kg/injection, schedule: Q01DX001 (ip), vehicle: carboxymethylcellulose (CMC)

Measured: T/C

Nc1cc(O)cc(O)c1
inactive: dose: 100.0 mg/kg/injection, schedule: Q01DX009 (ip), vehicle: saline with Tween-80 95 % of control | dose: 100.0 mg/kg/injection, schedule: Q04DX003 (ip), vehicle: saline with Tween-80 91 % of control | dose: 200.0 mg/kg/injection, schedule: Q01DX009 (ip), vehicle: saline with Tween-80 95 % of control | dose: 200.0 mg/kg/injection, schedule: Q04DX003 (ip), vehicle: saline with Tween-80 98 % of control | dose: 400.0 mg/kg/injection, schedule: Q01DX009 (ip), vehicle: saline with Tween-80 102 % of control | dose: 400.0 mg/kg/injection, schedule: Q04DX003 (ip), vehicle: saline with Tween-80 89 % of control

CC#CCC(N)C(=O)O (stereo unspecified)
inactive: dose: 75.0 mg/kg/injection, schedule: Q01DX001 (ip), vehicle: carboxymethylcellulose (CMC) 109 % of control | dose: 80.0 mg/kg/injection, schedule: Q01DX009 (ip), vehicle: saline 105 % of control | dose: 150.0 mg/kg/injection, schedule: Q01DX001 (ip), vehicle: carboxymethylcellulose (CMC) 103 % of control | dose: 160.0 mg/kg/injection, schedule: Q01DX009 (ip), vehicle: saline 106 % of control | dose: 300.0 mg/kg/injection, schedule: Q01DX001 (ip), vehicle: carboxymethylcellulose (CMC) 118 % of control | dose: 320.0 mg/kg/injection, schedule: Q01DX009 (ip), vehicle: saline 94 % of control

Nc1ncnc2nc(-c3ccc(CNC(=O)CCc4ccc(S(=O)(=O)F)cc4)cc3)[nH]c12
inactive: [1] 89 % of control | [2] 89 % of control | [3] 89 % of control

CC1(C)NC(=O)C2CC21C (stereo unspecified)
inactive: dose: 100.0 mg/kg/injection, schedule: Q04DX002 (ip), vehicle: saline 91 % of control

O=[N+]([O-])c1cccc(C=Nc2cccc([N+](=O)[O-])c2)c1
inactive: dose: 100.0 mg/kg/injection, schedule: Q04DX003 (ip), vehicle: gum acacia 95 % of control | dose: 200.0 mg/kg/injection, schedule: Q04DX003 (ip), vehicle: gum acacia 93 % of control | dose: 400.0 mg/kg/injection, schedule: Q04DX003 (ip), vehicle: gum acacia 98 % of control

CCc1ccc(CCSCCc2ccc(CC)c[n+]2[O-])[n+]([O-])c1
inactive: [4] 96 % of control | [5] 100 % of control

Cc1nc(N(C)C)[nH]c(=O)c1CCCNc1ccccc1
inactive: [1] 111 % of control | [2] 96 % of control | [3] 100 % of control

C=Cn1nnnc1N
inactive: [1] 100 % of control | [2] 93 % of control | [3] 98 % of control

Nc1ccc2cn[nH]c2c1
inactive: dose: 50.0 mg/kg/injection, schedule: Q04DX002 (ip), vehicle: saline with Tween-80 100 % of control | dose: 100.0 mg/kg/injection, schedule: Q01DX009 (ip), vehicle: water 104 % of control | dose: 100.0 mg/kg/injection, schedule: Q04DX002 (ip), vehicle: saline with Tween-80 100 % of control | dose: 100.0 mg/kg/injection, schedule: Q04DX003 (ip), vehicle: water 96 % of control | dose: 200.0 mg/kg/injection, schedule: Q01DX009 (ip), vehicle: water 111 % of control | dose: 200.0 mg/kg/injection, schedule: Q04DX002 (ip), vehicle: saline with Tween-80 106 % of control | dose: 200.0 mg/kg/injection, schedule: Q04DX003 (ip), vehicle: water 94 % of control | dose: 400.0 mg/kg/injection, schedule: Q04DX003 (ip), vehicle: water 100 % of control

Nc1ccccc1S(=O)(=O)F
inactive: dose: 75.0 mg/kg/injection, schedule: Q04DX003 (ip), vehicle: Klucel (hydroxypropylcellulose) (HPC) 100 % of control | [6] 98 % of control | dose: 150.0 mg/kg/injection, schedule: Q04DX003 (ip), vehicle: Klucel (hydroxypropylcellulose) (HPC) 94 % of control | [7] 98 % of control | dose: 300.0 mg/kg/injection, schedule: Q04DX003 (ip), vehicle: Klucel (hydroxypropylcellulose) (HPC) 96 % of control | [8] 101 % of control

NNC(=O)c1ccc[nH]1
inactive: dose: 75.0 mg/kg/injection, schedule: Q01DX001 (ip), vehicle: saline 102 % of control

O=C(O)c1ccc([N+](=O)[O-])cc1Sc1ccsc1
inactive: [4] 98 % of control | [5] 98 % of control | dose: 400.0 mg/kg/injection, schedule: Q01DX001 (ip), vehicle: saline 98 % of control

IC1CCC(I)C2CCC1O2 (stereo unspecified) (tested in a mixture with another compound)
inactive: dose: 50.0 mg/kg/injection, schedule: Q04DX003 (ip), vehicle: Klucel (hydroxypropylcellulose) (HPC) 106 % of control | dose: 100.0 mg/kg/injection, schedule: Q01DX009 (ip), vehicle: Klucel (hydroxypropylcellulose) (HPC) 106 % of control | dose: 100.0 mg/kg/injection, schedule: Q04DX003 (ip), vehicle: Klucel (hydroxypropylcellulose) (HPC) 101 % of control | dose: 200.0 mg/kg/injection, schedule: Q01DX009 (ip), vehicle: Klucel (hydroxypropylcellulose) (HPC) 104 % of control | dose: 200.0 mg/kg/injection, schedule: Q04DX003 (ip), vehicle: Klucel (hydroxypropylcellulose) (HPC) 98 % of control and 100 % of control | dose: 400.0 mg/kg/injection, schedule: Q01DX009 (ip), vehicle: Klucel (hydroxypropylcellulose) (HPC) 96 % of control | dose: 400.0 mg/kg/injection, schedule: Q04DX003 (ip), vehicle: Klucel (hydroxypropylcellulose) (HPC) 100 % of control

COc1cc(/C=C2\CCNC2=O)ccc1OCc1ccccc1
inactive: dose: 50.0 mg/kg/injection, schedule: Q01DX001 (ip), vehicle: carboxymethylcellulose (CMC) 94 % of control | [6] 105 % of control | [7] 97 % of control | [8] 103 % of control
